pKi: −log10 of the molar value. Several values for one entry are separate records, joined by “and”; a condition that tells them apart may be missing. Equal entries are not always repeated.
Each molecule was assayed against PIK3CG (human) (UniProt P48736) (assay: Inhibition of PIK3CG Kinase Activity).
Sequence of PIK3CG (human) (P48736 whole entry, looked up): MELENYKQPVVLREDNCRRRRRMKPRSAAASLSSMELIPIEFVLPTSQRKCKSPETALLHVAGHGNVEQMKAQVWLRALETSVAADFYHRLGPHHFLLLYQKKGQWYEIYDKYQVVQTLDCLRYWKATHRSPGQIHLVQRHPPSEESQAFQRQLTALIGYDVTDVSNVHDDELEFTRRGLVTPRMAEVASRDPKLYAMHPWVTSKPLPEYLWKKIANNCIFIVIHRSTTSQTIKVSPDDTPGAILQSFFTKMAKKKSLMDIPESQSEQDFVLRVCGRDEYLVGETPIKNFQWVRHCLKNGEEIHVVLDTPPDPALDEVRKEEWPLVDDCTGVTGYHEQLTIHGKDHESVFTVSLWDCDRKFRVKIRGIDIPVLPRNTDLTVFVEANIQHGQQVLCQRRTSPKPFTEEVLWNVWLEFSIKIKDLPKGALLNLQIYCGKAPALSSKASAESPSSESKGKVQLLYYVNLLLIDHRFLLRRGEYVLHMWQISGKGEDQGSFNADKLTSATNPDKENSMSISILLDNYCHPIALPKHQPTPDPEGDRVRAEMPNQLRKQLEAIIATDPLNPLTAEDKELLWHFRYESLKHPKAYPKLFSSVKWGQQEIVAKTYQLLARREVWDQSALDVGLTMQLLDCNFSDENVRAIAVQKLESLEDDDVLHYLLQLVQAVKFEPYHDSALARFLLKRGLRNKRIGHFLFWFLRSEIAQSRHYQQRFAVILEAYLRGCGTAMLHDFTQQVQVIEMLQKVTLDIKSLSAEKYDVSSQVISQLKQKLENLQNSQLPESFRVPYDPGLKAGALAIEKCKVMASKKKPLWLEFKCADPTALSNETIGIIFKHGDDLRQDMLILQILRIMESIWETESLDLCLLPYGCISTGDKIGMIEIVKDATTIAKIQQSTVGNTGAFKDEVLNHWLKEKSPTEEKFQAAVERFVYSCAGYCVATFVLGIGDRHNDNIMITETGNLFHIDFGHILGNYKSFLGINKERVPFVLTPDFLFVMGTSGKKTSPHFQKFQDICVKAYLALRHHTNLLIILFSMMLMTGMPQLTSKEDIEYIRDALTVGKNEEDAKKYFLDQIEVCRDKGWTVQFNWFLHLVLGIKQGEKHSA

pKi	SMILES
6.31 to 7.00	COc1cc(-c2ccc3c(n2)C(N2CC(OC)C2)N(c2cnn(CC(F)(F)F)c2)C3=O)cnc1OC (stereo not drawn)
6.31 to 7.00	COc1cc(-c2ccc3c(n2)CN(c2cnn(CCn4ccc(C)n4)c2)C3=O)cnc1OC
> 7.00	CSc1cncc(-c2cc(C)c3c(n2)CN(c2cnn(CC(F)(F)F)c2)C3=O)c1
6.31 to 7.00	COc1cc(-c2ccc3c(n2)CN(c2ccc(OCC#N)nc2)C3=O)cnc1OC
> 7.00	CCOc1cncc(-c2cc(C)c3c(n2)[C@]2(CCOC2)N(c2cnn(CC(F)(F)F)c2)C3=O)c1
> 7.00	COC(=O)Cc1cncc(N2Cc3nc(-c4cnc(OC)c(OC)c4)ccc3C2=O)c1
6.31 to 7.00	COc1cc(-c2ccc3c(n2)CN(c2ccc(N(C)CCC4OCCO4)nc2)C3=O)cnc1OC
> 7.00	Cc1cc(-c2cncc(OC(F)F)c2)nc2c1C(=O)N(c1cn[nH]c1)[C@H]2C
> 7.00	COc1cc(-c2ccc3c(n2)CN(c2cnn(CC(N)=O)c2)C3=O)cnc1OC
6.31 to 7.00	CCn1cc(N2Cc3cc(-c4ccc(OC)c(OC)n4)ccc3C2=O)cn1
> 7.00	Cc1cc(-c2cncc(C(=O)NC(C)C)c2)nc2c1C(=O)N(c1cnn(CC(F)(F)F)c1)C2C (stereo not drawn)
> 7.00	COc1cc(-c2cc(C)c3c(n2)CN(c2ccn(CC(F)(F)F)n2)C3=O)cnc1OC
> 7.00	COc1cc(-c2cc(C)c3c(n2)CN(c2ccnc(OCC(F)(F)F)c2)C3=O)cnc1OC
6.31 to 7.00	COc1cc(-c2ccc3c(n2)C(C)N(c2cnn(C[C@@H](C)O)c2)C3=O)cnc1OC (stereo partly drawn)
> 7.00	COc1cc(-c2ccc3c(n2)[C@H](C)N(c2ccn(CC(C)(C)O)n2)C3=O)cnc1OC
> 7.00	COc1cc(-c2cc(C)c3c(n2)CN(c2cnn(C[C@H](C)O)c2)C3=O)cnc1OC
> 7.00	CCOc1cncc(-c2cc(C)c3c(n2)C2(CCOC2)N(c2cnn(CC(F)(F)F)c2)C3=O)c1 (stereo not drawn)
> 7.00	COc1cncc(-c2cc(C)c3c(n2)[C@H](C)N(c2ccn(C)n2)C3=O)c1
> 7.00	COc1cc(-c2cc(C)c3c(n2)CN(c2cncc(C#N)c2)C3=O)cnc1OC
6.31 to 7.00 and > 7.00	Cc1cc(-c2cncc([S+](C)[O-])c2)nc2c1C(=O)N(c1cnn(CC(F)(F)F)c1)C2(C)C (stereo not drawn)
> 7.00	COc1cc(-c2cc(C)c3c(n2)CN(c2ccc(C(F)(F)F)nc2)C3=O)cnc1OC
> 7.00	Cc1cc(-c2cncc(C(=O)NCC3CC3)c2)nc2c1C(=O)N(c1cnn(CC(F)(F)F)c1)C2(C)C
> 7.00	COCCOc1ncc(-c2cc(C)c3c(n2)CN(c2cnn(CC#N)c2)C3=O)cc1OC
> 7.00	COc1cc(-c2ccc3c(n2)CN(c2cnn(Cc4cccc5c4OCCCO5)c2)C3=O)cnc1OC

pKi	SMILES
> 7.00	COc1cc(-c2ccc3c(n2)CN(c2ccc(N4CCC(OC)CC4)nc2)C3=O)cnc1OC
> 7.00	CCOc1cncc(-c2cc(C)c3c(n2)[C@H](OC)N(c2cnn(CC(F)(F)F)c2)C3=O)c1
> 7.00	COc1cc(-c2cc(C)c3c(n2)CN(c2ccnc(C4(C#N)CC4)c2)C3=O)cnc1OC
> 7.00	COc1cncc(-c2cc(C)c3c(n2)CN(c2ccn(CC(C)(C)O)n2)C3=O)c1
> 7.00	Cc1cc(-c2cncc(OC(F)F)c2)nc2c1C(=O)N(c1cnn(CC(F)(F)F)c1)C2(C)C
> 7.00	COc1cc(-c2ccc3c(n2)C(C)N(c2csc(SC)n2)C3=O)cnc1OC (stereo not drawn)
> 7.00	COc1cc(-c2ccc3c(n2)CN(c2cnn(C[C@H](O)CC#N)c2)C3=O)cnc1OC
> 7.00	COc1cc(-c2cc(C)c3c(n2)[C@@]2(CCCO2)N(c2cnn(CC(F)(F)F)c2)C3=O)cnc1OC(C)C
> 7.00	COc1ncc(-c2cc(C)c3c(n2)CN(c2cnn(CC(F)(F)F)c2)C3=O)cc1OCC1CCCCO1 (stereo not drawn)
> 7.00	COc1ncc(-c2cc(C)c3c(n2)C(C)(C)N(c2cnn(CC(F)(F)F)c2)C3=O)cc1C(=O)N(C)C
6.31 to 7.00	CCc1cc(N2Cc3nc(-c4cncc(OC(F)F)c4)ccc3C2=O)nn1C[C@H](C)O
> 7.00	COc1cc(-c2ccc3c(n2)[C@@H](C)N(c2cnn(CC(C)(C)O)c2)C3=O)cnc1OC
> 7.00	COc1cc(-c2ccc3c(n2)CN(c2ccn(C[C@H](C)O)n2)C3=O)cnc1OC
> 7.00	COc1cc(-c2ccc3c(n2)[C@H](C)N(c2cccc(C(C)(C)C#N)n2)C3=O)cnc1OC
> 7.00	COc1cc(-c2ccc3c(n2)CN(c2cnn(C(C)(C)C#N)c2)C3=O)cnc1OC
> 7.00	COc1cc(-c2ccc3c(n2)CN(c2cnn([C@H](C)C#N)c2)C3=O)cnc1OC
> 7.00	COc1cncc(-c2cc(C)c3c(n2)[C@H](C)N(c2ccn(C[C@H](C)O)n2)C3=O)c1
> 7.00	COc1cc(-c2ccc3c(n2)CN(c2cnn([C@H](C)CO)c2)C3=O)cnc1OC
> 7.00	COc1ncc(-c2cc(C)c3c(n2)CN(c2cnn(CC(F)(F)F)c2)C3=O)cc1Cl
6.31 to 7.00	CCOc1ncc(-c2cc(C)c3c(n2)C2(CCCO2)N(c2ccn(CC)n2)C3=O)cc1OC (stereo not drawn)
> 7.00	COc1cc(-c2cc(C)c3c(n2)C(C)(C)N(c2cnn(C[C@H](C)O)c2)C3=O)cnc1OC
> 7.00	CCn1ccc(N2C(=O)c3ccc(-c4cnc(OC)c(OC)c4)nc3[C@H]2C)n1
> 7.00	CCO[C@@H]1c2nc(-c3cnc(OC)c(OC)c3)cc(C)c2C(=O)N1c1cnn(CC(F)(F)F)c1
6.31 to 7.00	COc1cc(-c2ccc3c(n2)C(N2CCOCC2)N(c2cnn(CC(F)(F)F)c2)C3=O)cnc1OC (stereo not drawn)

pKi	SMILES
> 7.00	COc1ncc(-c2ccc3c(n2)CN(c2ccn(C)n2)C3=O)cc1OC(F)F
> 7.00	Cc1cc(-c2ccc(F)c(O)c2)nc2c1C(=O)N(c1cnn(CC(F)(F)F)c1)C2
> 7.00	Cc1cc(-c2cncc(C(=O)NCC(F)F)c2)nc2c1C(=O)N(c1cnn(CC(F)(F)F)c1)C2(C)C
> 7.00	COc1cncc(-c2cc(C)c3c(n2)C(C)(C)N(c2cnn(CC(F)(F)F)c2)C3=O)c1
> 7.00	COc1ncc(-c2cc(C)c3c(c2)CN(c2cnn(CC(F)(F)F)c2)C3=O)nc1OC
6.31 to 7.00	CCOc1ncc(-c2cc(C)c3c(n2)[C@@]2(CCCO2)N(c2ccn(CC)n2)C3=O)cc1OC
> 7.00	COc1ncc(-c2cc(C)c3c(n2)C(C)(C)N(c2cnn(CC(F)(F)F)c2)C3=O)cc1C(=O)NC(C)(C)C
> 7.00	COc1cc(-c2ccc3c(n2)C(C)N(c2cn(CC(F)(F)F)cn2)C3=O)cnc1OC (stereo not drawn)
> 7.00	COc1ncc(-c2cc(C)c3c(n2)CN(c2cnn(C(C)(C)C#N)c2)C3=O)c(OC)n1
> 7.00	COc1cc(-c2ccc3c(n2)[C@@H](C)N(c2ccn(CC(F)(F)F)n2)C3=O)cnc1OC
> 7.00	Cc1cc(-c2cncc(S(=O)(=O)N(C)C)c2)nc2c1C(=O)N(c1cnn(CC(F)(F)F)c1)C21CCOC1 (stereo not drawn)
> 7.00	Cc1cc(-c2cncc(OC(F)F)c2)nc2c1C(=O)N(c1cnn(C(C)(C)C#N)c1)C2
> 7.00	COc1ncc(-c2cc(C)c3c(n2)CN(c2cnn(CC#N)c2)C3=O)c(OC)n1
> 7.00	Cc1cc(-c2cncc(C(=O)NC3CCOC3)c2)nc2c1C(=O)N(c1cnn(CC(F)(F)F)c1)C2(C)C (stereo not drawn)
> 7.00	COc1ccc(-c2cc(C)c3c(n2)CN(c2cnn(CC#N)c2)C3=O)cc1OC
> 7.00	COc1cc(-c2ccc3c(n2)CN(c2cncc(CO)c2)C3=O)cnc1OC
> 7.00	Cc1cc(-c2cncc(S(C)(=O)=O)c2)nc2c1C(=O)N(c1cnn(CC(F)(F)F)c1)C2(C)C
> 7.00	COc1cc(-c2cc(C)c3c(n2)CN(c2cccc(C4(C#N)CC4)c2)C3=O)cnc1OC
6.31 to 7.00	Cc1cc(-c2cc(OC(F)(F)F)ccc2Cl)nc2c1C(=O)N(c1cnn(CC(F)(F)F)c1)C2
> 7.00	CNC(=O)c1cncc(-c2cc(C)c3c(n2)CN(c2cnn(CC(F)(F)F)c2)C3=O)c1
> 7.00	COc1cc(OC)cc(-c2cc(C)c3c(n2)[C@H](C)N(c2cnn(CC(F)(F)F)c2)C3=O)c1
> 7.00	COc1cc(-c2ccc3c(n2)C(C)N(c2cnn(C=C(F)F)c2)C3=O)cnc1OC (stereo not drawn)
> 7.00	COc1cc(-c2cc(C)c3c(n2)[C@@]2(CCCO2)N(c2cnn(CC(F)(F)F)c2)C3=O)cnc1OC
> 7.00	COc1ncc(-c2cc(C)c3c(c2)C(C)N(c2cnn(CC(F)(F)F)c2)C3=O)nc1OC (stereo not drawn)

pKi	SMILES
> 7.00	COc1ncc(-c2ccc3c(n2)[C@@H](C)N(c2cnn(CC(F)(F)F)c2)C3=O)cc1O
> 7.00	CCC1(OC)c2nc(-c3cnc(OC)c(OC)c3)cc(C)c2C(=O)N1c1cnn(CC(F)(F)F)c1 (stereo not drawn)
> 7.00	CCn1cc(N2Cc3nc(-c4cnc(OC)c(OCC5CC5)c4)cc(C)c3C2=O)cn1
> 7.00	Cc1cc(-c2cc(O)cs2)nc2c1C(=O)N(c1cnn(CC(F)(F)F)c1)C2
> 7.00	COc1cc(-c2ccc3c(n2)CN(c2cnn(Cc4cc(C)on4)c2)C3=O)cnc1OC
> 7.00	CCC1c2nc(-c3cnc(OC)c(OC)c3)ccc2C(=O)N1c1cnn(CC(F)(F)F)c1 (stereo not drawn)
> 7.00	COc1cc(-c2cc(C)c3c(n2)[C@]2(CCCO2)N(c2cnn(CC(F)(F)F)c2)C3=O)cnc1OC(C)C
> 7.00	C=C(F)Cn1cc(N2C(=O)c3ccc(-c4cnc(OC)c(OC)c4)nc3C2(C)C)cn1
6.31 to 7.00	COc1cc(-c2ccc3c(c2)CN(c2cccc(C(C)C#N)c2)C3=O)cnc1OC (stereo not drawn)
> 7.00	CCOc1cc(-c2cc(C)c3c(n2)C(C)(C)N(c2cnn(CC(F)F)c2)C3=O)cnc1C
> 7.00	Cc1cc(-c2cncc(OC(F)F)c2)nc2c1C(=O)N(c1cc[nH]n1)C2
> 7.00	COCCOC1c2nc(-c3cnc(OC)c(OC)c3)ccc2C(=O)N1c1cnn(CC(F)(F)F)c1 (stereo not drawn)
> 7.00	COCc1cc(N2Cc3nc(-c4cnc(OC)c(OC)c4)ccc3C2=O)nn1CC(F)(F)F
> 7.00	COc1ncc(-c2cc(C)c3c(n2)CN(c2cn[nH]c2)C3=O)cc1OCC(F)F
> 7.00	CCOc1ncc(-c2cc(C)c3c(n2)C(C)(O)N(c2cnn(CC(F)(F)F)c2)C3=O)cc1OC (stereo not drawn)
> 7.00	COc1cc(-c2cc(C)c3c(n2)CN(c2ccnc(C)c2)C3=O)cnc1OC
> 7.00	COc1cncc(-c2cc(C)c3c(n2)C(C)N(c2cn(C)cn2)C3=O)c1 (stereo not drawn)
> 7.00	COc1ccc(-c2cc(C)c3c(n2)C(C)(C)N(c2cnn(CC(F)F)c2)C3=O)nc1OC
> 7.00	COc1cncc(-c2cc(C)c3c(n2)C2(CCOCC2)N(c2cnn(CC(F)(F)F)c2)C3=O)c1
> 7.00	CCOc1cc(-c2ccc3c(n2)CN(c2cnn(CC#N)c2)C3=O)cnc1OCC
> 7.00	COc1cc(-c2ccc3c(n2)CN(c2cn[nH]c2)C3=O)cnc1OC
